Laboratory results: patent US8741853B2, “Mitochondria-targeting antioxidant therapeutics” (priority 2007, dated 2014)
Where two headings read alike, the source gives them in different places.

Experiments:
[1] = test system: mitochondrial membrane potential (ΔΨm) in SHSY-5Y neuroblastoma cells; details: FRET-based ΔΨm assay, reference agent, cited from earlier work
[2] = humans; cited from earlier work
[3] = test system: human tumor cell lines FaDu and Jurkat, Ki-v-Ras-transformed Balb/c-3T3 murine mesenchymal cell line; details: cited from earlier work
[4] = test system: mitochondrial membrane potential (ΔΨm) in SHSY-5Y neuroblastoma cells; assay: FRET-based ΔΨm assay (NAO/TMRE), compound alone and Ca2+-induced ΔΨm collapse; assay type: cell-based; details: concentration not given; for % Ca^2+ response score (comparison agents): reference agents; for B-C response, typical values: reference agents alone
[5] = test system: caspase-3 activation in SHSY-5Y cells; assay: Caspase-3 activation induced by ethacrynic acid plus thapsigargin; assay type: cell-based; details: positive control, 24 hr ethacrynic acid/thapsigargin stress
Description: The potential ability of test compound Nos. 1-10 individually to moderate caspase activation was therefore examined using SHSY-5Y cells, in accordance with the Dykens assay.
In the Dykens assay method, caspase activation is induced by 24 hr exposure to a combined stress of ethacrynic acid (25 to derivatize glutathione and induce oxidative stress, and thapsigargin (1 μM), to induce a chronic increase in cytosolic Ca^2+. Caspase activity is determined using a fluorogenic substrate, with rates normalized to cell number; and is expressed as % response of controls on every plate exposed to ethacrynate and thapsigargen in the absence of compound. Compound Nos. 1-10 at 10 μM were separately introduced for reaction at the same time as the ethycrynic acid/thapsigargin addition, and were present throughout the 24 hr incubation period.

[6] = read-out: EC50, prevent Ca^2+ uptake via uniporter inhibition

Molecule: Nc1ncnc2c1ncn2[C@@H]1O[C@H](COP(=O)(O)OP(=O)(O)O)[C@@H](O)[C@H]1O [ADP]
- EC50 ([1]; read-out: EC50, dissipate ΔΨm under physiological circumstances): 122000 nM

Molecule: O=C(O)CCCCC1CCSS1 (stereo not drawn) [alpha-lipoic acid, 1,2-dithiolane-3-pentanoic acid]
- plasma half-life [2]: less than 1 hour
- time to excretion, mainly in the urine [2]: ≤ 24 h
- Apoptosis in tumor cell lines [3]: induces apoptosis

Molecule: CC[C@H]1/C=C/C=C/C[C@@H](C)[C@H](O)[C@@](C)(O)C(=O)[C@@H](C)[C@H](O)[C@@H](C)C(=O)[C@@H](C)[C@H](O)[C@@H](C)/C=C/C(=O)O[C@@H]2[C@H](C)[C@H](CC1)O[C@]1(CC[C@H](C)[C@H](C[C@@H](C)O)O1)[C@H]2C [oligomycin]
- EC50 ([1]; read-out: EC50, hyperpolarize ΔΨm): 26 nM

Molecule: N.N.N.N.N.N.N.N.N.N.N.N.N.N.[Cl-].[Cl-].[Cl-].[Cl-].[Cl-].[Cl-].[O-2].[O-2].[Ru+3].[Ru+3].[Ru+4] [ruthenium red]
- % Ca^2+ response score (comparison agents) [4]: 9%
- EC50 [1, 6]: 270 nM

Molecule: IGF-1: positive control in caspase-3 activation assay
- Reduction of caspase activity [5]: 64%

Molecule: CO[C@H](C/C=C\C=C\CC/C=C/C[C@H](C)/C=C/C(=C\C(=O)O)CC(=O)O)/C(C)=C\C=C(/C)C(=O)O [bongkrekate]
- B-C response, typical values [4]: ~600 RFU
- % Ca^2+ response score (comparison agents) [4]: 44%
- EC50 ([1]; read-out: EC50, inhibit Ca^2+-mediated ΔΨm loss): 77 nM

Molecule: RU-360
- EC50 [1, 6]: 12 nM

Molecule: N#CC(C#N)=NNc1cccc(Cl)c1 [CCCP]
- B-C response, typical values [4]: ~−1800 RFU
- EC50 ([1]; read-out: EC50, collapse ΔΨm): 2000 nM
